Source: ChEMBL document CHEMBL1148616, “Synthesis and structure-activity relationships of novel poly(ADP-ribose) polymerase-1 inhibitors” (Bioorg Med Chem Lett, 2006)

Target: Poly [ADP-ribose] polymerase 1 (Homo sapiens, UniProt P09874)
Sequence (P09874 whole entry): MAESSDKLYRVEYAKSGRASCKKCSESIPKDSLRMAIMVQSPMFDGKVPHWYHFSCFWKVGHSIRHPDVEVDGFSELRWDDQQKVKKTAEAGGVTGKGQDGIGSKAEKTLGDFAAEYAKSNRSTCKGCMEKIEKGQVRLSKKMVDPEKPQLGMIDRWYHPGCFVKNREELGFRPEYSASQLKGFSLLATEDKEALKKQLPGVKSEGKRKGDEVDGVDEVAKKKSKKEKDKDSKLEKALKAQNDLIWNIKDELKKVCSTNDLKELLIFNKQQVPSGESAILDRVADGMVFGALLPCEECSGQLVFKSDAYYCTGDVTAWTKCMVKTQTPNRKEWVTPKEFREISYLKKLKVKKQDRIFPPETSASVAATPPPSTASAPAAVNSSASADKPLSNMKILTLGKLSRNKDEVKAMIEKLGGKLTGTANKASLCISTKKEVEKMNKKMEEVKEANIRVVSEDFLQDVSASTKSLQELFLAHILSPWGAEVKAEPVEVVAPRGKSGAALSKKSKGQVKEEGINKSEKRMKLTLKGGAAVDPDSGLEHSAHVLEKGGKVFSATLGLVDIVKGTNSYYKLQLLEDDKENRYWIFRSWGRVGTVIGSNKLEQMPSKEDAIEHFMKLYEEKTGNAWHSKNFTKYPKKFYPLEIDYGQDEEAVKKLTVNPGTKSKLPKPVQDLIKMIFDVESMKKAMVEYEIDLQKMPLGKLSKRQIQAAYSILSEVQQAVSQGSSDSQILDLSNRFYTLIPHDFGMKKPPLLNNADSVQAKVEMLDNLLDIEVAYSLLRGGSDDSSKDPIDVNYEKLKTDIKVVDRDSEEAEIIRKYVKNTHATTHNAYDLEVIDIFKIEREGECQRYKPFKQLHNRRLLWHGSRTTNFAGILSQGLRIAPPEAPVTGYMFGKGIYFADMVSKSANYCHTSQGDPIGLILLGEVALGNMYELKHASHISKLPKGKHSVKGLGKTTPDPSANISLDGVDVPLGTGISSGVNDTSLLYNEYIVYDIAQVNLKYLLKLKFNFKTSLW
Description: Inhibitory activity against human PARP1 expressed in PC12 cells

IC50 [µM] | SMILES
> 10 | CCCc1c2c(c3c([nH]c4ccccc43)c1CC)C(=O)NC2=O
0.026 | Nc1ccc2c3c(cccc13)C(=O)NC2=O
> 10 | O=C1NC(=O)c2c1c1ccccc1c1[nH]c3ccccc3c21
> 10 | O=C1NC(=O)c2c1c1c(c3sc4ccccc4c23)CCC1
> 10 | O=C1NC(=O)c2c1c1c(c3oc4ccccc4c23)CCC1
